Assay results taken from patent publication US20050130979A1, “Treatment of demyelinating disorders” (Eisai Co., Ltd., priority 1998, published 2005).
“Also recorded” adds a separate entry of the source.

Key:
Lewis rat acute EAE = test: Acute-active EAE in Lewis rats (MBP immunisation), clinical disease scoring and weight; format: in vivo; conditions: for Incidence (%) / Incidence (animals with neurological deficit / group): Lewis rat acute EAE; for Duration / Onset / Peak Disease Score / Cumulative Disease Score / Weight Loss: mean; for Peak Disease Score: scale 0-5; for neurological deficits during acute EAE (in words): following treatment; for severity of paralysis during EAE (in words): vs vehicle
Protocol: Female Lewis rats (205+10 g) obtained from Charles River, Kent, UK, were housed in pairs under environmentally controlled conditions (6:00 a.m.-6:00 p.m. light/dark cycle; 22-24° C.; 45-55% humidity) and allowed free access to food and water. […] Female Biozzi mice (20±5 g) obtained from Harlan, UK, were housed under the conditions described above. Experimental groups consisted of 7-10 animals.
Rats were immunised in each hind foot with 50 μl of inoculum containing 50 μg guinea pig myelin basic protein (MBP, prepared by the method of Dunkley and Carnegie (1974); final concentration […]), emulsified in Freund's complete adjuvant (CFA; Sigma, UK) containing Mycobacterium tuberculosis H37Ra (final concentration 5.5 mg/ml; Difco Laboratories, UK).
Animals were weighed and monitored daily and clinical disease scored as (0) no clinical signs; (1) flaccid tail and weight loss; (2) hind limb hypotonia with further weight loss; (3) complete hind limb paralysis; (4) paraplegia and (5) death. […] During the period of compound administration (10-16 days post immunisation; dpi) animals were scored 15 h after injection of vehicle or NBQX to avoid any acute effect of treatment on disease score.
NBQX was initially dissolved in NaOH and diluted with water. pH was adjusted with HCl. Rats were injected i.p. twice daily (9 a.m. and 5 p.m.) on days 10 to 16 post immunisation with either vehicle or NBQX in the dose of 30 mg/kg. Mice were injected i.p. either twice daily (9 a.m. and 5 p.m.) on days 10 to 16 post immunisation or once daily (9 a.m.) on days 26 to 42 post immunisation with either vehicle or NBQX in the dose of 30 mg/kg.
GYKI53773 was suspended in 5% cremophore in saline. Rats were injected i.p. twice daily (9 a.m. and 5 p.m.) on days 10 to 16 post immunisation with either vehicle or GYKM53773 in the dose of 30 mg/kg.
GYKM52466 was suspended in 5% cremophore in water. Rats were injected i.p. twice daily (9 a.m. and 5 p.m.) on days 10 to 16 post immunisation with either vehicle or GYKI52466 in the dose of 30 mg/kg.
BIIR561 was suspended in 5% cremophore in water. Rats were injected i.p. twice daily (9 a.m. and 5 p.m.) on days 10 to 16 post immunisation with either vehicle or BIIR561 in the dose of 30 mg/kg.
CP465022 was suspended in 5% cremophore in water. Rats were injected i.p. twice daily (9 a.m. and 5 p.m.) on days 10 to 16 post immunisation with either vehicle or CP465022 in the dose of 10 mg/kg.
MPQX was initially dissolved in NaOH and diluted with water. pH was adjusted with HCl. Rats were injected i.p. twice daily (9 a.m. and 5 p.m.) on days 10 to 16 post immunisation with either vehicle or MPQX in the dose of 10 mg/kg.

[1] = system: chronic EAE in the Biozzi mouse; test: Chronic-active EAE in Biozzi mice, clinical disease scoring; format: in vivo
[2] = BIIR561 30 mg/kg i.p. twice daily 10-16 dpi
[3] = rats, 30 mg/kg i.p. twice daily 10-16 dpi
[4] = rats, 30 mg/kg i.p. twice daily 10-16 dpi, 30 mg/kg
[5] = CP465022 10 mg/kg i.p. twice daily 10-16 dpi
[6] = rats, 10 mg/kg i.p. twice daily 10-16 dpi
[7] = rats, 10 mg/kg i.p. twice daily 10-16 dpi, 10 mg/kg
[8] = GYKI52466 30 mg/kg i.p. twice daily 10-16 dpi
[9] = MPQX 10 mg/kg i.p. twice daily 10-16 dpi
[10] = NBQX 30 mg/kg i.p. twice daily 10-16 dpi
[11] = 30 mg/kg i.p. twice daily 10-16 dpi
[12] = GYKI53773 30 mg/kg i.p. twice daily 10-16 dpi

CN(C)Oc1ccccc1-c1nc(-c2ccccc2)no1 [BIIR561, 5-(2-[N,N-dimethylamino]oxy-phenyl)-3-phenyl-1,2,4-oxadiazol]
Incidence (%) (Lewis rat acute EAE; [2]): (100) % | Incidence (animals with neurological deficit / group) (Lewis rat acute EAE; [2]): 16/16 | Duration (Lewis rat acute EAE; [2]): 3.9 days | Onset (Lewis rat acute EAE; n = 16 for BIIR561, 30 mg/kg i.p. twice daily 10-16 dpi): 12.4 d.p.i. | Peak Disease Score (Lewis rat acute EAE; [2]): 2.6 | Cumulative Disease Score (Lewis rat acute EAE; summation of daily scores, BIIR561 30 mg/kg i.p. twice daily 10-16 dpi): 7.8 | Weight Loss (Lewis rat acute EAE; weight on cessation of experiment as percent of maximum weight before disease onset, BIIR561 30 mg/kg i.p. twice daily): 17% | neurological deficits during acute EAE (in words) (Lewis rat acute EAE; rats): reduced neurological deficits | cumulative disease score relative to vehicle treatment (in words) (Lewis rat acute EAE; [3]): significantly reduced | peak disease score relative to vehicle treatment (in words) (Lewis rat acute EAE; [4]): significantly reduced | severity of paralysis during EAE (in words) (Lewis rat acute EAE; [3]): redcues the severity of paralysis

CCN(CC)Cc1cccc(C=Cc2nc3ccc(F)cc3c(=O)n2-c2ccccc2Cl)n1 [CP465022, 3-(2-chlorophenyl)-2-[2-[6-[(diethylamino)methyl]-2-pyridinyl]ethenyl]-6-fluoro-4(3H)-quinazolinone]
Incidence (%) (Lewis rat acute EAE; [5]): (89) % | Incidence (animals with neurological deficit / group) (Lewis rat acute EAE; [5]): 8/9 | Duration (Lewis rat acute EAE; [5]): 3.4 days | Onset (Lewis rat acute EAE; n = 8 for CP465022, 10 mg/kg i.p. twice daily 10-16 dpi): 13.4 d.p.i. | Peak Disease Score (Lewis rat acute EAE; [5]): 2.0 | Cumulative Disease Score (Lewis rat acute EAE; summation of daily scores, CP465022 10 mg/kg i.p. twice daily 10-16 dpi): 7.2 | Weight Loss (Lewis rat acute EAE; weight on cessation of experiment as percent of maximum weight before disease onset, CP465022 10 mg/kg i.p. twice daily): 20% | neurological deficits during acute EAE (in words) (Lewis rat acute EAE; rats): reduced neurological deficits | cumulative disease score relative to vehicle treatment (in words) (Lewis rat acute EAE; [6]): reduced | disease duration relative to vehicle treatment (in words) (Lewis rat acute EAE; [6]): reduced | disease onset relative to vehicle treatment (in words) (Lewis rat acute EAE; [6]): significantly delayed | peak disease score relative to vehicle treatment (in words) (Lewis rat acute EAE; [7]): significantly reduces; also recorded: reduced | severity of paralysis during EAE (in words) (Lewis rat acute EAE; [6]): reduces the severity of paralysis

CC1=NN=C(c2ccc(N)cc2)c2cc3c(cc2C1)OCO3 [GYKI52466, 1-(-aminophenyl)-4-methyl-7,8-methylene-dioxy-5H-2,3-benzodiazepine]
Incidence (%) (Lewis rat acute EAE; [8]): (60) % | Incidence (animals with neurological deficit / group) (Lewis rat acute EAE; [8]): 15/16 | Duration (Lewis rat acute EAE; [8]): 4.0 days | Onset (Lewis rat acute EAE; n = 15, GYKI52466 30 mg/kg i.p. twice daily 10-16 dpi): 11.6 d.p.i. | Peak Disease Score (Lewis rat acute EAE; [8]): 2.4 | Cumulative Disease Score (Lewis rat acute EAE; summation of daily scores, GYKI52466 30 mg/kg i.p. twice daily 10-16 dpi): 8.0 | Weight Loss (Lewis rat acute EAE; weight on cessation of experiment as percent of maximum weight before disease onset, GYKI52466 30 mg/kg i.p. twice daily): 20% | neurological deficits during acute EAE (in words) (Lewis rat acute EAE; rats): reduced neurological deficits | cumulative disease score relative to vehicle treatment (in words) (Lewis rat acute EAE; [3]): significantly reduced | peak disease score relative to vehicle treatment (in words) (Lewis rat acute EAE; [4]): significantly reduced | severity of paralysis during EAE (in words) (Lewis rat acute EAE; [3]): reduces the severity of paralysis

O=c1[nH]c2cc(C(F)(F)F)c(N3CCOCC3)cc2n(CP(=O)(O)O)c1=O [MPQX]
Incidence (%) (Lewis rat acute EAE; [9]): (58) % | Incidence (animals with neurological deficit / group) (Lewis rat acute EAE; [9]): 7/12 | Duration (Lewis rat acute EAE; [9]): 1.7 days | Onset (Lewis rat acute EAE; n = 7 for MPQX, 10 mg/kg i.p. twice daily 10-16 dpi): 12.3 d.p.i. | Peak Disease Score (Lewis rat acute EAE; [9]): 1.2 | Cumulative Disease Score (Lewis rat acute EAE; summation of daily scores, MPQX 10 mg/kg i.p. twice daily 10-16 dpi): 3.2 | Weight Loss (Lewis rat acute EAE; weight on cessation of experiment (18 dpi) as percent of maximum weight before disease onset, MPQX 10 mg/kg i.p. twice daily): 22% | neurological deficits during acute EAE (in words) (Lewis rat acute EAE; rats): reduced neurological deficits | cumulative disease score relative to vehicle treatment (in words) (Lewis rat acute EAE; [6]): reduced | disease duration relative to vehicle treatment (in words) (Lewis rat acute EAE; [6]): reduced | disease onset relative to vehicle treatment (in words) (Lewis rat acute EAE; [6]): significantly delayed | peak disease score relative to vehicle treatment (in words) (Lewis rat acute EAE; [7]): significantly reduces; also recorded: reduced | severity of paralysis during EAE (in words) (Lewis rat acute EAE; [6]): reduces the severity of paralysis

NS(=O)(=O)c1cccc2c1c([N+](=O)[O-])cc1nc(O)c(O)nc12 [NBQX, 2,3-dihydroxy6-nitro-7-sulfamoylbenzo-(F)quinoxaline]
Incidence (%) (Lewis rat acute EAE; [10]): (75) % | Incidence (animals with neurological deficit / group) (Lewis rat acute EAE; [10]): 4/10 | onset of weight loss (Lewis rat acute EAE; NBQX 30 mg/kg i.p. twice daily 10-16 dpi, p<0.01): 13 dpi | rats in which development of paralysis was completely prevented (Lewis rat acute EAE; NBQX 30 mg/kg i.p. twice daily from day 10 to 16 post immunisation): 6 out of 10 | Duration (Lewis rat acute EAE; [11]): 1.5 days | Onset (Lewis rat acute EAE; n = 4 for NBQX, 30 mg/kg i.p. twice daily 10-16 dpi): 11.8 d.p.i. | Peak Disease Score (Lewis rat acute EAE; [11]): 0.7 | Cumulative Disease Score (Lewis rat acute EAE; summation of individual daily disease scores, 30 mg/kg i.p. twice daily 10-16 dpi): 2.4 | Weight Loss (Lewis rat acute EAE; weight on cessation of treatment (16 dpi) as percent of maximum weight before disease onset, 30 mg/kg i.p. twice daily): 14% | neurological deficits during acute EAE (in words) (Lewis rat acute EAE; rats): reduction in neurological deficits | cumulative disease score relative to vehicle treatment (in words) (Lewis rat acute EAE; [3]): significantly reduced | disease duration relative to vehicle treatment (in words) (Lewis rat acute EAE; [3]): significantly reduced | peak disease score relative to vehicle treatment (in words) (Lewis rat acute EAE; [4]): significantly reduced | severity of paralysis during EAE (in words) (Lewis rat acute EAE; [3]): reduces severity of paralysis | weight loss during the course of EAE (in words) (Lewis rat acute EAE; rats, NBQX 30 mg/kg i.p. twice daily 10-16 dpi, up to cessation of treatment (16 dpi)): reduces weight loss; also recorded: decreasing the percent body weight lost | disease severity between dpi 28 to 48 (in words) ([1]; Biozzi mice, NBQX 30 mg/kg i.p. once daily for 17 days commencing on dpi 26, P<0.05): reduced disease severity | disease severity between dpi 10 to 48 (in words) ([1]; Biozzi mice, NBQX 30 mg/kg i.p. twice daily for 7 days starting on dpi 10, P<0.001): improved neurological outcome reducing disease severity | severity of paralysis during chronic EAE (in words) ([1]; NBQX 30 mg/kg i.p., twice daily 10-16 dpi (A) or once daily 26-42 dpi (B)): reduces the severity of paralysis | neurological deficit during chronic EAE (in words) ([1]; mice, following treatment): reduction in neurological deficit

(−)1-(4-aminophenyl)-4-methyl-7,8-methylenedioxy-4,5-dihydro-^3-methylcarbamoyl-2,3-benzodiazepine [GYKI53773]
Incidence (%) (Lewis rat acute EAE; [12]): (60) % | Incidence (animals with neurological deficit / group) (Lewis rat acute EAE; [12]): 6/10 | Duration (Lewis rat acute EAE; [12]): 1.9 days | Onset (Lewis rat acute EAE; n = 6 for GYKI53773, 30 mg/kg i.p. twice daily 10-16 dpi): 12.7 d.p.i. | Peak Disease Score (Lewis rat acute EAE; [12]): 0.9 | Cumulative Disease Score (Lewis rat acute EAE; summation of daily scores, GYKI53773 30 mg/kg i.p. twice daily 10-16 dpi): 2.1 | Weight Loss (Lewis rat acute EAE; weight on cessation of experiment (20 dpi) as percent of maximum weight before disease onset, GYKI53773 30 mg/kg i.p. twice daily): 16% | neurological deficits during acute EAE (in words) (Lewis rat acute EAE; rats): reduced neurological deficits | cumulative disease score relative to vehicle treatment (in words) (Lewis rat acute EAE; [3]): significantly reduced | disease duration relative to vehicle treatment (in words) (Lewis rat acute EAE; [3]): significantly reduced | peak disease score relative to vehicle treatment (in words) (Lewis rat acute EAE; [4]): significantly reduced | peak disease score relative to vehicle treatment (in words) (Lewis rat acute EAE; rats, 30 mg/kg i.p. twice daily 10-16 dpi, listed as GYKM53773, 30 mg/kg): significantly reduces | severity of paralysis during EAE (in words) (Lewis rat acute EAE; [3]): reduces the severity of paralysis
